Source: patent US12103941B2, “Radiation-activatable platinum complex, its preparation and therapeutic use” (City University of Hong Kong, priority 2022, dated 2024)

Tests used:
[1] = Sono-activation (sono-induced reduction) of complex 1 in PBS, HPLC; assay type: physicochemical; conditions: 4 W
Protocol: The sono-activation property of complex 1 was investigated. A PBS solution (with 1% DMF) containing 10 μM complex 1 with or without 5 mM sodium ascorbate (i.e. the sample), was continuously treated with ultrasound (1.75 MHz, 4 W) for a total period of time of 60 min. The sample temperature was monitored with an FLIR thermographic camera and maintained at 37° C. throughout the experiment. […] (FIGS. 6C to 6E), indicating the reduction of Pt(IV) to Pt(II) along with the dissociation of the axial ligand 1 and hydroxide ligand upon sono-activation (i.e. complex 1 undergoes a sono-induced reduction).

[2] = test system: Human lung fibroblast MRC-5 cells; test: Cell viability of normal MRC-5 cells (FIG. 10); assay type: cell-based; conditions: absence of ultrasound, 24 h
Protocol: (§1) The biological activity of complex 1 was evaluated. Human breast carcinoma MCF-7 cells, human cervix carcinoma HeLa cells, mammary breast carcinoma 4T1 cells, human lung carcinoma A549 cells, and cisplatin-resistant A549cisR cells were cultured in DMEM containing 10% FBS and 100 IU mL^−1 penicillin/streptomycin. Human ovarian carcinoma A2780 and A2780cisR cells were cultured in RPMI-1640 containing 10% FBS, 2 mM L-glutamine, and 100 IU mL^−1 penicillin/streptomycin. Human lung fibroblast MRC-5 cells were cultured in MEM containing 10% FBS, 1% NEAA, 1% L-Glutamine, 1% sodium pyruvate, and 100 IU mL^−1 penicillin/streptomycin. In every two passages of A2780cisR and A549cisR cells, 5 μM of cisplatin was added to maintain the platinum resistance. All the cells were cultured in humidified incubators at 37° C. with 5% CO2. Cell counting was performed with a hemocytometer. Cytotoxicity test was performed by exposing the cancer cells with complex 1. The viability of cancer cells exposed was evaluated by means of MTT assay. Specifically, the cells were first pre-seeded in 6-well plates until the confluency reached 80%. Then, the medium was removed and replaced with fresh medium containing different concentrations of complex 1 with 0.5% DMF (0, 2.5, 5, 12.5, 25, or 40 μM). After 30 min, the medium was aspirated, the well was washed with PBS for three times. […]

[3] = Photo-activation of complex 1 by 808 nm laser, HPLC; assay type: physicochemical; conditions: 10 μM in PBS (1% DMF), 5 mM ascorbate, laser 808 nm, 3.3 mW/cm^2, 15 min
Protocol: The inventors have further investigated if complex 1 could be activated by other types of radiation such as EM radiation, in particular light such as infrared light. A PBS buffer solution (with 1% DMF) containing 10 μM complex 1 with 5 mM ascorbate in a quartz cuvette was irradiated with a laser (808 nm, 3.3 mW/cm^2) for 15 min under stirring. The sample was analysed by HPLC. […] In view of the similar profiles, the inventors believe that complex 1 would also release singlet oxygen upon photo-activation along with the aforementioned photo-induced reduction.

[4] = test system: different cancer cell lines (MCF-7, HeLa, 4T1, A549, A549cisR, A2780, A2780cisR); test: Cytotoxicity, MTT assay, all tested cancer cell lines (FIG. 9); assay type: cell-based
Protocol: as §1

HeLa cells = test: Cytotoxicity, MTT assay, HeLa cells; assay type: cell-based, human; conditions: IC50 without vs with radiation
Protocol: as §1

[5] = Stability of complex 1 in the dark (HPLC); assay type: physicochemical; conditions: 10 μM, PBS pH 7.4, RPMI-1640 culture medium and A2780 cell lysate, no radiation
Protocol: The stability of complex 1, i.e., complex 1 in phosphate buffer saline (PBS) buffer, cell culture medium such as RPMI-1640, and cell lysate in the dark (i.e., in the absence of radiation) was determined. To determine the stability of complex 1 in PBS, complex 1 (10 μM) was dissolved in PBS buffer (pH 7.4, 1% DMF) and incubated at 310 K in the dark. At 24 h, the sample was analyzed by HPLC to determine the percentage of Pt(IV) remained. To determine the stability of complex 1 in complete RPMI-1640 culture medium (containing 10% FBS, 2 mM L-Glutamine, and 100 IU mL^−1 penicillin/streptomycin) or cell lysate (from A2780 cells by 1% triton X-100 lysis, protein concentration adjusted to 1.5 mg mL^−1), complex 1 was dissolved in these two solutions, respectively (with 1% DMF). At determined time intervals, 50 μL of samples were taken out and diluted with 200 μL MeOH with subsequent centrifugation at 14,000×g to remove proteins, and then the supernatant was analyzed by HPLC.

CCCN1/C(=C/C=C2\CCCC(/C=C/C3=[N+](CCC)c4ccccc4C3(C)C)=C2Oc2ccc(CCC(=O)[O][Pt]3([NH2])([NH2])([OH])[O]C(=O)C4(CCC4)C(=O)[O]3)cc2)C(C)(C)c2ccccc21 [complex 1, cyaninplatin]
complex 1 reduced (to Pt(II)) after sono-activation ([1]; 10 μM in PBS (1% DMF), 5 mM ascorbate, ultrasound 1.75 MHz, about 60 min, 37° C.): about 95%
conditions required for sono-induced reduction ([1]; 10 μM in PBS, with or without 5 mM ascorbate, with or without ultrasound 1.75 MHz): only occurs under the condition where both ascorbate and ultrasound are present
toxicity to normal MRC-5 cells [2]: non-toxic
photo-activation / photo-induced reduction to Pt(II) complex [3]: can be photo-activated
activity on tested cells upon ultrasound treatment ([4]; ultrasound 3.5 W, 15 min): very active
toxicity to tested cells without ultrasound treatment ([4]; without the ultrasound treatment): generally non-toxic
enhancement of cytotoxicity upon exposure to radiation (HeLa cells): about 6 times
time complex is stable in the dark (single HPLC peak) [5]: ≥ 6 h
